Assay results from patent US20260000079A1, “COMPOSITIONS AND METHODS FOR MODULATING IMMUNITY IN PLANTS” (BOYCE THOMPSON INSTITUTE FOR PLANT RESEARCH, INC., priority 2019, published 2026).

Legend:
tomato leaves = assay: LC-MS analysis of tomato leaves infiltrated with ascr #18; format: in vivo, Solanum lycopersicum; settings: 4-week old tomato plants infiltrated with 1 μM ascr #18
From the text: FIG. 2A provides LC-MS analysis of tomato roots treated with ascr #18 or ^13C2-labeled ascr #18. Plants treated with ^13C2-labeled ascr #18 show peaks at 333.21932 and 249.12542, representing [M-H]^− of ^13C2-ascr #18 and ^13C2-ascr #9, but not at 331.21261 and 247.11871, which correspond to [M-H]^− of ascr #18 and ascr #9, and vice versa. Structures of ascr #18 and ascr #9 indicating the positions of the ^13C2-label are shown above ion chromatograms. Peaks marked with an asterisk represent unrelated peaks. FIGS. 2B and 2C provide graphs showing the relative abundances of ascr #18 and ascr #9, respectively, as measured by LC-MS. Four-week old Arabidopsis leaves were infiltrated with 1 μM ascr #18, and leaf tissue were harvested for LC-MS analyses over a period of 96 hours post infiltration of ascr #18. Data are averages±SEM (n=3). FIG. 2D provides LC-MS analyses of tomato leaves infiltrated with 1 μM ascr #18. Tissues were collected over a 12 hour period. Abundances of ascr #18 and ascr #9 are shown as the peak area, as measured by LC-MS. […] To test whether microbes are required for the observed metabolic transformations, leaves of 4-week old Arabidopsis plants were directly infiltrated with ascr #18 and leaf tissue was subsequently harvested for analysis by LC-MS as above. […]

M. incognita J2 larvae = assay: J2 larvae touching roots of pretreated seedlings in PF-127 gel; format: in vivo, Meloidogyne incognita; settings: 48 hours pretreatment
Protocol: (§1) FIG. 4A provides a schematic of the experimental designs for assessing activation of defense pathways and resistance to nematodes and bacteria. […] Bacterial growth was assayed 3 days post inoculation. Data are averages±s.d. (n=17). […] Arabidopsis seedlings were treated with buffer or the indicated concentrations of ascr #18 for 48 hours before inoculation with approximately 300 freshly hatched M. incognita J2 larvae. The numbers of root galls of infected plants were counted 6 weeks post inoculation. Data are averages±s.d. (n≥15). […] Arabidopsis seedlings were treated with the indicated concentrations of ascr #18 for 48 hours before transfer into 12-well plates containing Pluronic® F-127 gel with ˜200 freshly hatched M. incognita J2 larvae. Larvae touching root tips (FIG. 4D) or the whole area of roots (FIG. 4E) were counted at 6 hours post seedling transfer. Data are average±s.d. (n=12). […] Transcript levels were determined by qRT-PCR and plotted as relative fold-change compared to mock treated plants. Data are averages±s.d (n≥6). *P≤0.05; **P≤0.005; ***P≤0.0005; two-tailed t-test.
FIG. 6A provides a graph of the number of nematodes touching the root tips of Arabidopsis wildtype and acx1acx5 treated with 50 nM ascr #18 or ascr #9 for 48 hours before transfer into 12-well plates containing Pluronic® F-127 gel with ˜200 freshly hatched M. incognita J2 larvae. Larvae touching the terminal part of roots were counted at 6 hours after seedling transfer. Data are average±s.d. (n=12). FIG. 6B provides a schematic of a Petri dish as shown in the plate layout. […] Larvae in the indicated scoring areas were counted after 4 hours. […] FIG. 6D provides the attraction index for different concentrations of ascr #18, ascr #9, or ascr #18/ascr #9 mixtures measured using the layout shown in FIG. 6C. […]
In a second experiment, wildtype and acx1acx5 were treated with ascr #18 for 48 hours prior to moving seedlings to a PF-127 gel containing approximately 200 M. incognita second-stage larvae (J2) (FIG. 4A, 4D, 4E). J2 larvae touching the roots were counted at 6 hours post seedling transfer.

[1] = system: defense-response genes in Arabidopsis leaves; assay: qRT-PCR of defense-response genes in Arabidopsis leaves after root treatment; format: in vivo, Arabidopsis thaliana; settings: leaves 24 hours after root treatment with 1 μM
Protocol: as §1
For each replicate, total RNA from Arabidopsis leaves were isolated from a pool of one leaf from each of three plants. For the seedling RNA analyses, Arabidopsis roots were collected from 30-40 seedlings for each replicates. Total RNA was isolated using Qiagen RNeasy® Plant Mini Kit (Qiagen) according to the manufacturer's instructions. DNAse treatment was done using DNA-Free™ Kit (Ambion) following the manufacturer's instructions. […]
For quantitative real-time PCR (qRT-PCR), transcripts were amplified using SYBR® Premix Ex-Taq™ (Takara) from 2.5 μL of 5×-diluted cDNA in a total 20 μL reaction using 0.1 μL of 100 μM gene-specific primers. […] The relative fold change was calculated according to the 2-ΔΔCt method (Manosalva, et al. (2015) Nat. Commun. 6:7795; Floss, et al. (2013) Proc. Natl. Acad. Sci. 110: E5025-34). […]
Next, it was determined whether differences in activation of defense signaling in wildtype and acx1acx5 plants underlie the observed differences in resistance to nematodes. […]

| Structure (SMILES) | formation of ascr #9 in leaves (tomato leaves) | effect on infection (J2 larvae touching root tips) (M. incognita J2 larvae; wildtype or acx1acx5, 50 nM) | effect on M. incognita behavior (J2 larvae touching roots) (M. incognita J2 larvae; wildtype or mutant, 1 μM) | numbers of J2 larvae touching the root tips or whole root area (M. incognita J2 larvae; wildtype, 50 nM, counted 6 hours post transfer) | induction of MAPK-related FRK1 ([1]; acx1acx5 vs wildtype) | induction of jasmonic acid signaling genes (PDF1.2, AOS, LOX2) ([1]; wildtype vs acx1acx5) | induction of salicylic acid signaling genes (PR-1, PR-4) ([1]; wildtype vs acx1acx5) |
| --- | --- | --- | --- | --- | --- | --- | --- |
| C[C@H](CCC(=O)O)O[C@@H]1O[C@@H](C)[C@H](O)C[C@H]1O [ascr #9] | observed | did not significantly reduce infection | – | – | – | – | – |
| CC1O[C@@H](O[C@@H](C)CCCCCCCCC(=O)O)C(O)C[C@H]1O (stereo in doubt) [ascr #18, (10R)-(3′R,5′R-dihydroxy-6′S-methyl-(2H)-tetrahydropyran-2-yloxy)-undecanoic acid] | – | – | did not significantly affect | significantly reduced | slightly weaker in the mutant | to similar extents | to similar extents |
